Test results published in patent US9775902B2, “Compounds and methods for treatment of stroke” (FIBROGEN, INC, priority 2006, dated 2017).

Legend:
[1] = tested on: Wistar rats, transient occlusion of the middle cerebral artery; assay: Rat model of transient middle cerebral artery occlusion (tMCAO): infarct volume and edema at 48 hours; assay type: in vivo
Text: The effect of compounds of the present invention on infarct volume and edema was examined in an animal model of ischemic stroke. For these studies, male Wistar rats (320 g) were subjected to transient occlusion of the middle cerebral artery. Rats were anesthetized with 3% isoflurane in oxygen. Aseptic technique was used for all procedures during these studies. The surgical site was clipped and cleaned with alcohol and surgical scrub. Each animal was placed on a warm water heating pad to maintain body temperature. A paramedian incision was made on the neck over the carotid artery. The tissue was bluntly dissected away to reveal the carotid artery and the carotid artery bifurcation. Sutures were placed around the proximal portion of the common carotid and the external carotid arteries and were then tied off. An incision was made in the common carotid, distal to the ligation and a pre-prepared filament (3-0 monofilament suture or like material) was placed in the carotid and advanced into the internal carotid artery. The filament was advanced approximately 20 millimeters past the carotid bifurcation until slight resistance was felt as it wedged inside the middle cerebral artery (MCA). Care was taken to not rupture the artery upon insertion of the filament. The filament was tied in place and the skin incision closed. At this time isoflurane was discontinued and the animals were allowed to awaken.
One hour after surgery, the success of MCA occlusion was assessed using the Bederson scale, as previously described. (See Bederson et al., (1986) Stroke, 17:1304-1308.) Sixty minutes after occlusion, the animals were re-anesthetized for reperfusion. The skin incision was reopened and the filament was carefully withdrawn from the MCA but not completely removed. Body temperature was taken every 15 minutes throughout the study to maintain normothermia. Animals that have undergone the MCA occlusion procedure may have difficulty in thermoregulation for a few hours after surgery. Animals were placed in a cooling or heating box as determined by their body temperature. Body temperature was maintained at 37.5° C.
Various compounds of the present invention were administered by oral gavage (p.o.) at reperfusion or at reperfusion and again at 24 hours after reperfusion in 0.5% CMC and 0.1% Polysorbate 80 at various doses (see Table 10 below). Forty-eight hours after MCA occlusion animals were euthanized with CO2 and their brains removed. After removal, the brain was sliced into 7 coronal sections, 2 mm thick. The sections were placed rostral side down in a petri dish and stained with 1% Triphenyl tetrazolium chloride for 20 minutes at 37° C. for determination of infarct volume. Brain sections were then digitally photographed and analyzed for changes in infarct volume and extent of edema. Infarct volumes were determined by measuring the infarcted (i.e., non-stained) areas of each brain section and multiplying this value by the section thickness. Extent of edema was determined by the net increase in volume of the ipsilateral cortex compared to that of the contralateral cortex of brain sections.

[2] = tested on: vascular endothelial growth factor (VEGF); assay: Brain VEGF gene expression in mice after intravenous injection; assay type: in vivo, Swiss Webster mice; conditions: 20 mg/kg i.v., four hours, quantitative real time PCR normalized to 18s RNA
Procedure: The effect of compounds of the present invention on regulation of cytoprotective and neuroprotective gene expression in brain was evaluated. In one series of experiments, male Swiss Webster mice were administered by intravenous injection various compounds of the present invention. Animals treated by intravenous injection received a 6 ml/kg volume of either 5% Dextrose with an equimolar amount of Meglumine (vehicle control) or 20 mg/kg of a compound of the present invention in 5% dextrose with an equimolar amount of Meglumine Animals were euthanized four hours later and their brains placed in RNAlater (Ambion, Austin Tex.) for subsequent analysis. Tissues were homogenized in Trizol (Invitrogen, Carlsbad Calif.) using 5-mm steel beads in a Mixer Mill (Qiagen, Valencia Calif.). RNA was isolated from the Trizol solution and then further purified using RNeasy kit (Qiagen). cDNA was prepared from […] total RNA using Omniscript reverse transcriptase (Qiagen) and random hexamers. Quantitative real time PCR was performed in a 7900HT instrument (Applied Biosystems, Foster City Calif.) using TaqMan Assays-on-Demand (Applied Biosystems). Gene expression levels were normalized to that of 18s RNA.

[3] = tested on: Wistar rats, transient occlusion of the MCA; assay: Rat tMCAO, 28 days: lesion area, neuronal degeneration, brain tissue loss (Fluoro-Jade B); assay type: in vivo; conditions: 60 mg/kg p.o. at 1.5 and 24 hours after reperfusion then 30 mg/kg every other day, vs non-treated control
Procedure: In another series of experiments, the long term effect of administration of compounds of the present invention on stroke and brain tissue damage associated with stroke was examined. For these studies, the effect of compounds of the present invention on lesion area, neuronal degeneration, and brain tissue loss following stroke was examined 28 days after transient MCA occlusion. Wistar rats (320 g) were subjected to transient occlusion of the MCA as described above. Compound F (60 mg/kg) was administered by oral gavage at 1.5 hours and 24 hours after reperfusion and subsequently every other day (using a dose of 30 mk/kg, p.o.) for 28 days. Twenty-eight days after transient MCA occlusion, animals were anesthetized with 3% isoflurane in oxygen and transcardially perfused with 100 ml of 0.9% saline solution (Hospira Inc, Lake Forest Ill.). Brains were removed and sliced into 6 coronal sections, 2 mm thick, and embedded in cryomold standard (Sakura Finetek, Ca) using O.C.T. embedded medium (Sakura Finetek, Ca). […]
Changes in lesion area were measured as follows. […] Lesion area was determined by measuring the infarcted (i.e., non-Fluoro-Jade B stained) areas of each brain section. […]
Changes in neuronal degeneration were measured as follows. […] Fluoro-Jade B positive cells observed in the digital photographs were quantified using Image Pro-Plus image analysis software (Media Cybernetics, Silver Spring Md.). Extent of neuronal degeneration was determined by comparing the total number of Fluoro-Jade B positive cells per mm^2 area of the treated group to the same area of the corresponding vehicle-control group. The distance of each coronal section from bregma was determined.
Changes in area of brain tissue loss were measured as follows. […] Area of brain tissue loss, associated with the ischemic insult, was measured by […]. A percentage value was then determined by dividing the area of brain tissue loss associated with the stroke by the total area of the contralateral hemisphere. […]

[4] = p.o. 6 mg/kg at reperfusion, 48 hours after MCA occlusion
[5] = 1 Dose 60 mg/kg p.o. at reperfusion
[6] = 2 Doses 60 mg/kg p.o., at reperfusion and 24 hours later
[7] = p.o. 60 mg/kg at reperfusion, 48 hours after MCA occlusion

Structure (SMILES) | Percent Reduction in Edema [1, 4] | Percent Reduction in Infarct Volume [1, 4] | VEGF gene expression in brain [2] | lesion area ([3]; FIG. 1) | neuronal degeneration (Fluoro-Jade B positive cells) ([3]; FIG. 2) | brain tissue loss ([3]; FIG. 3) | Percent Reduction in Edema [1, 5] | Percent Reduction in Infarct Volume [1, 5] | Percent Reduction in Edema [1, 6] | Percent Reduction in Infarct Volume [1, 6] | Percent Reduction in Edema [1, 7] | Percent Reduction in Infarct Volume [1, 7]
N#Cc1nc(C(=O)NCC(=O)O)c(O)c2c(Oc3ccc(F)cc3)cccc12 [Compound AS, {[1-Cyano-5-(4-fluoro-phenoxy)-4-hydroxy-isoquinoline-3-carbonyl]-amino}-acetic acid] | 32% | 58% | – | – | – | – | – | – | – | – | – | –
Cc1cccc(C)c1Oc1ccc2c(C#N)nc(C(=O)NCC(=O)O)c(O)c2c1 [Compound AL, {[1-Cyano-6-(2,6-dimethyl-phenoxy)-4-hydroxy-isoquinoline-3-carbonyl]-amino}-acetic acid] | 12% | 51% | – | – | – | – | – | – | – | – | – | –
COc1ccc(Oc2ccc3c(O)c(C(=O)NCC(=O)O)ncc3c2)cc1 [Compound F, {[4-Hydroxy-7-(4-methoxy-phenoxy)-isoquinoline-3-carbonyl]-amino}-acetic acid] | – | – | 1.5 | reduced | reduced | reduced | 28% | 42% | 39% | 70% | 39% | 70%
